The values that follow come from patent publication US20250206761A1, “HALOINDOLE MACROCYCLIC COMPOUNDS FOR THE TREATMENT OF CANCER” (Hoffmann-La Roche Inc., priority 2022, published 2025).

Experiment [1] has as its system phosphorylation of ERK, KRAS G12C in NCJ-H358 cells. The experiment in a line: pERK inhibition assay, KRAS G12C. Type of experiment: cell-based, human. The settings on record: Homo sapiens, 4 hours. In a few lines: (§1)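 In-cell ELISA of phospho-ERK (HRP/TMB, OD450) after formaldehyde fixation and methanol permeabilization; IC50 by 4-parameter sigmoidal fit. Compound incubation 4 h, 0.5% DMSO final, on overnight-attached NCJ-H358, AGS or SW620 cells seeded at 30,000, 20,000 and 30,000 per well.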

For experiment [2], the system named is phosphorylation of ERK, KRAS G12D in AGS cells. The experiment in a line: pERK inhibition assay, KRAS G12D. The settings on record: Homo sapiens, 4 hours. Type of experiment: cell-based, human. The procedure:
This assay is to measure the ability of test compounds in inhibiting the phosphorylation of ERK, the downstream signaling of KRAS G12C in NCJ-H358 cells, KRAS G12D in AGS cells, and KRAS G12V in SW620. NCJ-H358 (ATCC-CRL5807) cells, AGS (ATCC-CRL-1739) cells, SW620 (ATCC-CCL-227) cells were all grown and maintained using RPMI-1640 medium (Thermo Fisher Scientific) with 10% fetal bovine serum and 1% penicillin/streptomycin. On the day prior to compound addition, cells were plated in tissue culture-treated 96 well plates (Corning-3699) at a density of 30,000 cell/well, 20,000 cell/well, 30,000 cell/well for NCJ-H358, AGS and SW620 respectively, and allowed for attachment overnight. Diluted compounds were then added in a final concentration of 0.5% DMSO. After 4 hours of incubation, the medium was removed, 100 μL of 4% formaldehyde was added, and the assay plates were incubated at room temperature for 20 minutes. The plates were then washed once with phosphate buffered saline (PBS), and permeabilized with 100 μL of chilled methanol for 10 minutes. Non-specific antibody binding to the plates was blocked using 50 μL 1×BSA blocking buffer (Thermo-37520, 10-fold dilution by Phosphate-Buffered Saline Tween (PBST) for at least 1 hour at room temperature.
The amount of phosphor-ERK was determined using an antibody specific for phosphorylated form of ERK. Primary antibody (pERK, CST-4370, Cell Signaling Technology) was diluted 1:300 in blocking buffer, with 50 μL aliquoted to each well, and incubated overnight at 4′° C. Cells was washed five times for 5 minutes with PBST. Secondary antibody ([…] anti-rabbit IgG, CST-7074, Cell Signaling Technology) was diluted 1:1000 in blocking buffer, and 50 μL was added to each well and incubated 1-2 hrs at room temperature. Cells was washed 5 times for 5 minutes with PBST, 100 μL TMB ELISA substrate (abcam-ab171523) were added and gently shake for 20 minutes. 50 μL stop solution (abcam-ab171529) were added, and then read the signal (OD450) by EnVision.
IC50 was determined by fitting a 4-parameter sigmoidal concentration response model.

For experiment [3], the system named is phosphorylation of ERK, KRAS G12V in SW620. The experiment in a line: pERK inhibition assay, KRAS G12V. The class given is cell-based, human. The settings on record: Homo sapiens, SW-620, SW620, 4 hours. In a few lines: as §1
The test system of experiment [4] is NCI-H358 (ATCC-CRL5807) cells. The experiment in a line: Cell viability assay, G12C (NCI-H358). Type of experiment: cell-based, human. The settings on record: Homo sapiens; KRAS cell viability, NCI-H358, 72 hrs, Cell Counting Kit-8. In a few lines:
(§2)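 Seed NCI-H358 5,000/well, AGS and SW620 2,000/well; overnight. Compound, 0.5% DMSO final, 72 hrs. CCK-8 2 hrs, OD450–OD650. IC50: 4-parameter fit.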

The subject of experiment [5] is AGS (ATCC-CRL-1739) cells. The experiment in a line: Cell viability assay, G12D (AGS). The class given is cell-based, human. To be noted: Homo sapiens, KRAS cell viability, 72 hrs, Cell Counting Kit-8. In a few lines: as §2
Another experiment relates to SW620 (ATCC-CCL-227). The experiment in a line: Cell viability assay, G12V (SW620). Type of experiment: cell-based, human. To be noted: Homo sapiens, SW-620; KRAS cell viability, SW620, 72 hrs, Cell Counting Kit-8. In a few lines:
as §2
For orientation: Tetrazolium dyes change colour on reduction, which living cells bring about.

Another experiment concerns the target KRAS G12C-BRAF complex (Homo sapiens (Human), UniProt P01116+P62937, G12C). The experiment in a line: KRAS-BRAF with CYPA (500 nM) interaction assay (TR-FRET), G12C. Type of experiment: biochemical.
For experiment [6], the target named is KRAS G12D binding to BRAF (Homo sapiens (Human), UniProt P01116+P62937, G12D). The experiment in a line: KRAS-BRAF with CYPA (500 nM) interaction assay (TR-FRET), G12D. Type of experiment: biochemical. In general terms: In TR-FRET formats the signal depends on donor and acceptor labels being close together.
Chain of KRAS G12D binding to BRAF (P01116-2 other isoform, or with tags, fused parts or gaps G12D): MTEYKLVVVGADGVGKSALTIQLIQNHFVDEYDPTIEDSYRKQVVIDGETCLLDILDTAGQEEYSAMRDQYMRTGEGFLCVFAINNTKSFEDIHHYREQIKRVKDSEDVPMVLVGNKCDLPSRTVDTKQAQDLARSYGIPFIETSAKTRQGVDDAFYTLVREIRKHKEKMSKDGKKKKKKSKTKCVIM
Chain of KRAS G12D binding to BRAF (P62937 whole entry): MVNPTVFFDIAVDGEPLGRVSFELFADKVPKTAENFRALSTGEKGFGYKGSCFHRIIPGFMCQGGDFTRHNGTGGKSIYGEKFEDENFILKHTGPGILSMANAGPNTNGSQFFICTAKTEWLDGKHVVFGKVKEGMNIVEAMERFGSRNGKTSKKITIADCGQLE
In experiment [7] the target is KRAS G12V binding to BRAF (Homo sapiens (Human), UniProt P01116+P62937, G12V). Put plainly: KRAS-BRAF with CYPA (500 nM) interaction assay (TR-FRET), G12V. The class given is biochemical. In a few lines: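 A TR-FRET assay measured how compound, in the presence of CYPA, disrupts binding of GMPPNP-loaded 6His-KRAS G12V to BRAF. The buffer contained 25 mM HEPES PH=7.4, 0.002% Tween20, 0.1% BSA, 100 mM NaCl, 5 mM MgCl2 and 10 μM GMPPNP. Compounds ran as a 16-point 3-fold dilution series from 10 μM for 3 hours.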
Chain of KRAS G12V binding to BRAF (P01116-2 other isoform, or with tags, fused parts or gaps G12V): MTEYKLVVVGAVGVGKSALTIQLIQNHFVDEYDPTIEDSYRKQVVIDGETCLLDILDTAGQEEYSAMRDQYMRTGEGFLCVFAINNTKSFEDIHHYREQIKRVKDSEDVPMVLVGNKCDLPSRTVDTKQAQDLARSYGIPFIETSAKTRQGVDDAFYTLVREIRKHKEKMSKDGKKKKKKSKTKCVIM
Chain of KRAS G12V binding to BRAF (P62937 whole entry): as the sequence (P62937 whole entry) above

Structures are written as SMILES. pIC50: −log10 of the molar value.

Chain of KRAS G12C-BRAF complex (P01116-2 other isoform, or with tags, fused parts or gaps G12C): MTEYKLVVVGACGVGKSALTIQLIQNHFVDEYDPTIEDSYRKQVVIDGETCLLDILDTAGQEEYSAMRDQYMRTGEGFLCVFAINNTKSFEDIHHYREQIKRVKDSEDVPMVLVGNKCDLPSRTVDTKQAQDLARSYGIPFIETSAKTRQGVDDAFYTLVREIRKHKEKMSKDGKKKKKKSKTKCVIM
Chain of KRAS G12C-BRAF complex (P62937 whole entry): as the sequence (P62937 whole entry) above

For the compound `CO[C@@H](C)c1ncc(N2CCN(C)CC2)cc1-c1c2c3cc(c(C)cc3n1CC(F)(F)F)-c1csc(n1)C[C@H](NC(=O)[C@H](C(C)C)N(C)C(=O)[C@H]1CCN(C(=O)[C@H](F)Cl)C1)C(=O)N1CCC[C@H](N1)C(=O)OCC(C)(C)C2` (atropisomer, axis not shown; (M)) [Example 3, (3S)-1-[(2R)-2-chloro-2-fluoro-acetyl]-N-[(1S)-1-[[(7S,13S)-(20M)-20-[2-[(1S)-1-methoxyethyl]-5-(4-methylpiperazin-1-yl)-3-pyridyl]-17,17,24-trimethyl-8,14-dioxo-21-(2,2,2-trifluoroethyl)-15-oxa-4-thia-9,21,27,28-tetrazapentacyclo[17.5.2.1^2,5.1^9,13.0^22,26]octacosa-1(25),2,5(28),19,22(26),23-hexaen-7-yl]carbamoyl]-2-methyl-propyl]-N-methyl-pyrrolidine-3-carboxamide], the pIC50 in [1] was 7.49; in [2], 6.94; in experiment [3] it was 6.86.

As for `CO[C@@H](C)c1ncc(N2CCN(CC(F)(F)F)CC2)cc1-c1c2c3cc(c(F)cc3n1CC(F)(F)F)-c1csc(n1)C[C@H](NC(=O)[C@H](C(C)C)N(C)C(=O)[C@H]1CCN(C(=O)[C@H](F)Cl)C1)C(=O)N1CCC[C@H](N1)C(=O)OCC(C)(C)C2` (atropisomer, axis not shown; (M)) [Example 26, (3S)-1-[(2R)-2-chloro-2-fluoro-acetyl]-N-[(1S)-1-[[(7S,13S)-24-fluoro-(20M)-20-[2-[(1S)-1-methoxyethyl]-5-[4-(2,2,2-trifluoroethyl)piperazin-1-yl]-3-pyridyl]-17,17-dimethyl-8,14-dioxo-21-(2,2,2-trifluoroethyl)-15-oxa-4-thia-9,21,27,28-tetrazapentacyclo[17.5.2.1^2,5.1^9,13.0^22,26]octacosa-1(25),2,5(28),19,22(26),23-hexaen-7-yl]carbamoyl]-2-methyl-propyl]-N-methyl-pyrrolidine-3-carboxamide], the pIC50 in experiment [4] is 9.00; in [5], 6.59; with SW620 (ATCC-CCL-227), 7.47; on KRAS G12C-BRAF complex, 7.34; in experiment [6], less than 5.00; in experiment [7], 6.02. Further, the pIC50 in [1] was 8.15; in experiment [2], 7.82; in experiment [3] it was 7.85.

With `CO[C@@H](C)c1ncc(N2CCN(C)CC2)cc1-c1c2c3c(F)c(ccc3n1CC(F)(F)F)-c1csc(n1)C[C@H](NC(=O)[C@H](C(C)C)N(C)C(=O)[C@H]1CCN(C(=O)[C@H](F)Cl)C1)C(=O)N1CCC[C@H](N1)C(=O)OCC(C)(C)C2` (atropisomer, axis not shown; (M)) [Example 1, (3S)-1-[(2R)-2-chloro-2-fluoro-acetyl]-N-[(1S)-1-[[(7S,13S)-25-fluoro-(20M)-20-[2-[(1S)-1-methoxyethyl]-5-(4-methylpiperazin-1-yl)-3-pyridyl]-17,17-dimethyl-8,14-dioxo-21-(2,2,2-trifluoroethyl)-15-oxa-4-thia-9,21,27,28-tetrazapentacyclo[17.5.2.1^2,5.1^9,13.0^22,26]octacosa-1(25),2,5(28),19,22(26),23-hexaen-7-yl]carbamoyl]-2-methyl-propyl]-N-methyl-pyrrolidine-3-carboxamide], the pIC50 in [4] is 8.30; in experiment [5], 6.41; in the experiment with SW620 (ATCC-CCL-227), 7.04; in experiment [1], 8.15; in experiment [2], 6.86; in experiment [3], 7.26.

Regarding `CCn1c(-c2cccnc2COC)c2c3cc(ccc31)-c1cc(O)cc(c1)C[C@H](NC(=O)[C@H](C(C)C)N(C)C(=O)C1CN(C(=O)[C@H](F)Cl)C1)C(=O)N1CCC[C@H](N1)C(=O)OCC(C)(C)C2` [RM461-A, reference compound], the pIC50 in experiment [4] is 7.35; in experiment [5], 5.10; against KRAS G12C-BRAF complex, 7.57; in experiment [6] it was less than 5.00; in experiment [7] it was 5.22; in experiment [1], 7.31. The compound further gave a negative-log IC50 (pIC50) in experiment [2] of less than 5.00.

`CO[C@@H](C)c1ncc(N2CCOCC2)cc1-c1c2c3cc(c(F)cc3n1CC(F)(F)F)-c1csc(n1)C[C@H](NC(=O)[C@H](C(C)C)N(C)C(=O)[C@H]1CCN(C(=O)[C@H](F)Cl)C1)C(=O)N1CCC[C@H](N1)C(=O)OCC(C)(C)C2` (atropisomer, axis not shown; (M)) [Example 24, (3S)-1-[(2R)-2-chloro-2-fluoro-acetyl]-N-[(1S)-1-[[(7S,13S)-24-fluoro-(20M)-20-[2-[(1S)-1-methoxyethyl]-5-morpholino-3-pyridyl]-17,17-dimethyl-8,14-dioxo-21-(2,2,2-trifluoroethyl)-15-oxa-4-thia-9,21,27,28-tetrazapentacyclo[17.5.2.1^2,5.1^9,13.0^22,26]octacosa-1(25),2,5(28),19,22(26),23-hexaen-7-yl]carbamoyl]-2-methyl-propyl]-N-methyl-pyrrolidine-3-carboxamide]: the negative-log IC50 (pIC50) in experiment [5] is 6.55; in the experiment on SW620 (ATCC-CCL-227), 7.47; against KRAS G12C-BRAF complex, 7.28; in [6], less than 5.00; in experiment [7], 5.86; in experiment [1] it was 8.30. For the same compound, the figures for the negative logarithm of the IC50 (pIC50) in experiment [2] and in experiment [3] were 7.92 and 7.74, respectively.

For the compound `CO[C@@H](C)c1ncc(N2CCN(C)CC2)cc1-c1c2c3c(F)c(ccc3n1CC(F)(F)F)-c1cc(O)cc(c1)C[C@H](NC(=O)[C@H](C(C)C)N(C)C(=O)[C@H]1CCN(C(=O)[C@H](F)Cl)C1)C(=O)N1CCC[C@H](N1)C(=O)OCC(C)(C)C2` (atropisomer, axis not shown; (M)) [Example 27, (3S)-1-[(2R)-2-chloro-2-fluoro-acetyl]-N-[(1S)-1-[[(8S,14S)-26-fluoro-4-hydroxy-(21M)-21-[2-[(1S)-1-methoxyethyl]-5-(4-methylpiperazin-1-yl)-3-pyridyl]-18,18-dimethyl-9,15-dioxo-22-(2,2,2-trifluoroethyl)-16-oxa-10,22,28-triazapentacyclo[18.5.2.1^2,6.1^10,14.0^23,27]nonacosa-1(26),2,4,6(29),20,23(27),24-heptaen-8-yl]carbamoyl]-2-methyl-propyl]-N-methyl-pyrrolidine-3-carboxamide], the negative logarithm of the IC50 (pIC50) in [5] was 7.43; with SW620 (ATCC-CCL-227), 7.51; at KRAS G12C-BRAF complex it was 8.70; in [6], 8.15; in experiment [7] it was 8.52; in experiment [1] it was 8.52. Moreover, the negative logarithm of the IC50 (pIC50) is 7.96 in experiment [2] and 8.00 in experiment [3].

One may read the pIC50 as the negative decadic logarithm of the IC50, by convention in mol/L.
